Patent US20240109917A1 (ACTELION PHARMACEUTICALS LTD, priority 2020, published 2024)

Columns and labels:
[1] = target: His6-TEV-PDGFRβ (557-1016) (Homo sapiens (Human), UniProt P09619); test: PDGFRβ HTRF Assay; format: biochemical; conditions: read-out: PDGFR HTRF IC50
Method in brief: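 HTRF KinEASE-TK readout (665/620 nm ratio) of TK-biotin substrate phosphorylation by His-tagged PDGFRβ kinase domain. Enzyme and inhibitor preincubated 30 min, then ATP/substrate added for 3 h at room temperature before 60 min EDTA quench/detection.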

[2] = target: Tb-labeled inactive PDGFRβ (Homo sapiens (Human), UniProt P09619); test: PDGFRβ LanthaScreen Assay; format: binding; conditions: read-out: PDGFR Lantha IC50
Chain of Tb-labeled inactive PDGFRβ (P09619 33-1106): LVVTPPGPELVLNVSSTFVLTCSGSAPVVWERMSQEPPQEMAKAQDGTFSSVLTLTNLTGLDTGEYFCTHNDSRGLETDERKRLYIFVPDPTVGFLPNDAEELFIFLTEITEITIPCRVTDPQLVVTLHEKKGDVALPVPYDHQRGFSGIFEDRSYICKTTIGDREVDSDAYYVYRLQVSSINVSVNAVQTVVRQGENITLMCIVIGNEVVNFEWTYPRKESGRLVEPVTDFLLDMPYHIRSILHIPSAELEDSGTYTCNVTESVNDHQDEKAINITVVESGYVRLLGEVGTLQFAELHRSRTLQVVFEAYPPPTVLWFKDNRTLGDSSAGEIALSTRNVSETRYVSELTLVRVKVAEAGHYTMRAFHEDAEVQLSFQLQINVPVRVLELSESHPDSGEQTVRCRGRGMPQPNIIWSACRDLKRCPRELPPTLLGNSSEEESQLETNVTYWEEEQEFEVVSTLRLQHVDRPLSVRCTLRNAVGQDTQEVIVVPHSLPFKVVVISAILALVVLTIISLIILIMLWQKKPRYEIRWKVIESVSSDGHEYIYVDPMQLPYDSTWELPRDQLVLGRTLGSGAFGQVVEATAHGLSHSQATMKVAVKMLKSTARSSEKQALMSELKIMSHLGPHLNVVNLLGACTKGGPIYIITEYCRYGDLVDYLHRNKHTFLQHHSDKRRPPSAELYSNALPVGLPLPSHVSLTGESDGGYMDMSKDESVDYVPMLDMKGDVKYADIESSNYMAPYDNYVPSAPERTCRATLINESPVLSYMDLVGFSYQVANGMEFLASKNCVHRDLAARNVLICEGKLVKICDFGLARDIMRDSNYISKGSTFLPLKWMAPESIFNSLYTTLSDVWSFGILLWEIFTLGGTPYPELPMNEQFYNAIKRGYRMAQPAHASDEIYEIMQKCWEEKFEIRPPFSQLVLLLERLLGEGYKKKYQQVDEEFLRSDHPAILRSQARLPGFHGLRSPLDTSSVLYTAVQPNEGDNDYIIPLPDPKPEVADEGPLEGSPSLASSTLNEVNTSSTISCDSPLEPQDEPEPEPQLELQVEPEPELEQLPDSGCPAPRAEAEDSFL

VEGFR2, unphosphorylated = VEGFR2, unphosphorylated (Homo sapiens (Human), UniProt P35968); test: VEGFR ADP GLO Assay; format: biochemical
Chain of VEGFR2, unphosphorylated (P35968 20-1356): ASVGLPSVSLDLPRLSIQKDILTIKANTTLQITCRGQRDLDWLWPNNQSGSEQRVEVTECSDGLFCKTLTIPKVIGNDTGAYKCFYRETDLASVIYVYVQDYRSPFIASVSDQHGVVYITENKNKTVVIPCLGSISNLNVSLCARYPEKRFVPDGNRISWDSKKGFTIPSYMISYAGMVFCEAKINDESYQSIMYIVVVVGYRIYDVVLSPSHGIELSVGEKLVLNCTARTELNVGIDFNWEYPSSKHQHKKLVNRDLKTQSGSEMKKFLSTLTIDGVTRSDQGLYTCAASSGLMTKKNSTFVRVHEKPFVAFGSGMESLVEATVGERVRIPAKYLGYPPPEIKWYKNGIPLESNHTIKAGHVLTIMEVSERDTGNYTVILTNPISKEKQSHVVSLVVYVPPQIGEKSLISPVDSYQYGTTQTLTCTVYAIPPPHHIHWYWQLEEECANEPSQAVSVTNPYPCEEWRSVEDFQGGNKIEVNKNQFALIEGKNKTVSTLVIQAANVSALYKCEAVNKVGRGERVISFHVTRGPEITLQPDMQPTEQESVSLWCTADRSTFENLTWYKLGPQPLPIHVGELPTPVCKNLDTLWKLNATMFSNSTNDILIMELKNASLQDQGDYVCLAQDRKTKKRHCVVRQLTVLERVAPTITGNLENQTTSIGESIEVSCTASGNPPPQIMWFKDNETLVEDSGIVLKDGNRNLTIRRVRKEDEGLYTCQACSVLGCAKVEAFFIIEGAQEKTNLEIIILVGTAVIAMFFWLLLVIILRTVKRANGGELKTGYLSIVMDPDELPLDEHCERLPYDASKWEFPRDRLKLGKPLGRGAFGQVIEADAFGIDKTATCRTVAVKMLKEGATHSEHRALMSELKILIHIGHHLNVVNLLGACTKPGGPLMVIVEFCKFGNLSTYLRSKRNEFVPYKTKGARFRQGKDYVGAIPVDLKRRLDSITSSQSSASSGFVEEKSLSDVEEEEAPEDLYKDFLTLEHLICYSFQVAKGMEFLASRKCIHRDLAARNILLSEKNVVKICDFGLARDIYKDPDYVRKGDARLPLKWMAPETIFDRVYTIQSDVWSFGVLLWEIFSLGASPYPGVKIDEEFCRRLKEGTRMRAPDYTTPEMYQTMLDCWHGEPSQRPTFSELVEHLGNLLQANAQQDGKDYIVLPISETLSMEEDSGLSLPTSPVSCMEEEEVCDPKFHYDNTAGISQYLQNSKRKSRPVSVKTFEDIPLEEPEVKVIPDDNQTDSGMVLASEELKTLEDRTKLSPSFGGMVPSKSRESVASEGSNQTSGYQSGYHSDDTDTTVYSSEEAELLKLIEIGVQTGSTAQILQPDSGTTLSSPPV

Chain of His6-TEV-PDGFRβ (557-1016) (P09619 557-1016): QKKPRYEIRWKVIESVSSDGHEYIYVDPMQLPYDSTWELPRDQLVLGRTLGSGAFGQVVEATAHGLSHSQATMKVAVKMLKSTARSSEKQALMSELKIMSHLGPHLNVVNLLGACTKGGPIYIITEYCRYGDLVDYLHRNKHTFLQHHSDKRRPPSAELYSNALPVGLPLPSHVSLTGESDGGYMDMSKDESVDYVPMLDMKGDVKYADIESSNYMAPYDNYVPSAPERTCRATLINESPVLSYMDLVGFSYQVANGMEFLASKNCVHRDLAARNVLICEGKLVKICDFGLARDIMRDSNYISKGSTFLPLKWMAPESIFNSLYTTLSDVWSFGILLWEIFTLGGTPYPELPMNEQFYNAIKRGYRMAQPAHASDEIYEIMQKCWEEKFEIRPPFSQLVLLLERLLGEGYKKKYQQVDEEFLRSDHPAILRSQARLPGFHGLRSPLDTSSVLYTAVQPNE

SMILES | IC50 [1] | IC50 [2] | IC50 (VEGFR2, unphosphorylated)
Cc1ncc(C(=O)NCCN2CCC23CCC3)cc1NC(=O)c1cnn2cc(-c3cnn(C)c3C)sc12 [Example 169, N-(5-((2-(1-azaspiro[3.3]heptan-1-yl)ethyl)carbamoyl)-2-methylpyridin-3-yl)-2-(1,5-dimethyl-1H-pyrazol-4-yl)pyrazolo[5,1-b]thiazole-7-carboxamide] | 0.3 nM | 2.8 nM | > 7500 nM
Cc1ncc(C(=O)NCCN2CC3COCC3C2)cc1NC(=O)c1cnn2cc(-c3cnn(C)c3)sc12 (stereo not drawn) [Example 112, 2-(1-methyl-1H-pyrazol-4-yl)-N-(2-methyl-5-((2-(tetrahydro-1H-furo[3,4-c]pyrrol-5 (3H)-yl)ethyl)carbamoyl)pyridin-3-yl)pyrazolo[5,1-b]thiazole-7-carboxamide] | 0.5 nM | 12.6 nM | > 7500 nM
Cc1ncc(C(=O)NCCN2CCC(F)(F)CC2)cc1NC(=O)c1cnn2cc(-c3cnn(C)c3)sc12 [Example 119, N-(5-((2-(4,4-difluoropiperidin-1-yl)ethyl)carbamoyl)-2-methylpyridin-3-yl)-2-(1-methyl-1H-pyrazol-4-yl)pyrazolo[5,1-b]thiazole-7-carboxamide] | 0.3 nM | 2 nM | > 7500 nM
Cc1ncc(NC(=O)NCC2CCN(C(C)C)CC2)cc1NC(=O)c1cnn2cc(-c3cnn(C)c3)sc12 [Example 109, N-(5-(3-((1-isopropylpiperidin-4-yl)methyl)ureido)-2-methylpyridin-3-yl)-2-(1-methyl-1H-pyrazol-4-yl)pyrazolo[5,1-b]thiazole-7-carboxamide] | 38.9 nM | 1900 nM | > 7500 nM
Cc1ncc(C(=O)NCCN2CCCC2(C)C)cc1NC(=O)c1cnn2cc(-c3cncnc3)sc12 [Example 139, N-(5-((2-(2,2-dimethylpyrrolidin-1-yl)ethyl)carbamoyl)-2-methylpyridin-3-yl)-2-(pyrimidin-5-yl)pyrazolo[5,1-b]thiazole-7-carboxamide] | 5.3 nM | 182 nM | > 7500 nM
Cc1ncc(C(=O)NCCN2CCC3(CCOC3)C2)cc1NC(=O)c1cnn2cc(-c3cnn(C)c3)sc12 (stereo not drawn) [Example 116, N-(5-((2-(2-oxa-7-azaspiro[4.4]nonan-7-yl)ethyl)carbamoyl)-2-methylpyridin-3-yl)-2-(1-methyl-1H-pyrazol-4-yl)pyrazolo[5,1-b]thiazole-7-carboxamide] | 0.5 nM | 12.7 nM | > 7500 nM
Cc1ncc(C(=O)NCCN2CCC(F)(F)CC2)cc1NC(=O)c1cnn2cc(-c3ccncc3)sc12 [Example 154, N-(5-((2-(4,4-difluoropiperidin-1-yl)ethyl)carbamoyl)-2-methylpyridin-3-yl)-2-(pyridin-4-yl)pyrazolo[5,1-b]thiazole-7-carboxamide] | 0.3 nM | 2.4 nM | > 7500 nM
Cc1ncc(C(=O)NCCN2Cc3ncsc3C2)cc1NC(=O)c1cnn2cc(-c3cnn(C)c3)sc12 [Example 111, N-(5-((2-(4H-pyrrolo[3,4-d]thiazol-5 (6H)-yl)ethyl)carbamoyl)-2-methylpyridin-3-yl)-2-(1-methyl-1H-pyrazol-4-yl)pyrazolo[5,1-b]thiazole-7-carboxamide] | 1.1 nM | 36.4 nM | > 7500 nM
Cc1ncc(C(=O)NCCN2CC3CC(C3)C2)cc1NC(=O)c1cnn2cc(-c3cnn(C)c3)sc12 [Example 5, N-(5-((2-(3-azabicyclo[3.1.1]heptan-3-yl)ethyl)carbamoyl)-2-methylpyridin-3-yl)-2-(1-methyl-1H-pyrazol-4-yl)pyrazolo[5,1-b]thiazole-7-carboxamide] | 0.4 nM | 5.8 nM | > 7500 nM
Cc1ncc(NC(=O)CCN2CCC3(CC3)C2)cc1NC(=O)c1cnn2cc(-c3cnn(C)c3)sc12 [Example 104, N-(5-(3-(5-azaspiro[2.4]heptan-5-yl)propanamido)-2-methylpyridin-3-yl)-2-(1-methyl-1H-pyrazol-4-yl)pyrazolo[5,1-b]thiazole-7-carboxamide] | 0.4 nM | 9.8 nM | > 7500 nM
